Series [1] addresses T1, Serine/threonine-protein kinase B-raf (Homo sapiens, UniProt P15056, V600E). In words: Inhibition of His6X-tagged human B-raf V600E mutant expressed in baculovirus infected insect cells coexpressing […] using [gamma33P]ATP after 60 mins by scintillation counting.
For series [2], the target named is T1, Serine/threonine-protein kinase B-raf. Put plainly: Inhibition of B-raf V600E mutant-mediated Erk phosphorylation in human MALM-3M cells by fluorometric analysis. In kind it is cell-based.
The nature of series [3]: Dissociation constant, pKa of the compound at acidic pH. In kind it is physicochemical.
The nature of series [4]: Thermodynamic solubility of the compound at 0.5 mg/ml after 24 hrs by shake flask method at pH 1.2. Conditions: buffer, read-out: Therm_solubility. The series is classed as physicochemical.

In brackets after ≈: the same amount, converted by molar mass.

T1 sequence (P15056 2-766 V600E limits assumed): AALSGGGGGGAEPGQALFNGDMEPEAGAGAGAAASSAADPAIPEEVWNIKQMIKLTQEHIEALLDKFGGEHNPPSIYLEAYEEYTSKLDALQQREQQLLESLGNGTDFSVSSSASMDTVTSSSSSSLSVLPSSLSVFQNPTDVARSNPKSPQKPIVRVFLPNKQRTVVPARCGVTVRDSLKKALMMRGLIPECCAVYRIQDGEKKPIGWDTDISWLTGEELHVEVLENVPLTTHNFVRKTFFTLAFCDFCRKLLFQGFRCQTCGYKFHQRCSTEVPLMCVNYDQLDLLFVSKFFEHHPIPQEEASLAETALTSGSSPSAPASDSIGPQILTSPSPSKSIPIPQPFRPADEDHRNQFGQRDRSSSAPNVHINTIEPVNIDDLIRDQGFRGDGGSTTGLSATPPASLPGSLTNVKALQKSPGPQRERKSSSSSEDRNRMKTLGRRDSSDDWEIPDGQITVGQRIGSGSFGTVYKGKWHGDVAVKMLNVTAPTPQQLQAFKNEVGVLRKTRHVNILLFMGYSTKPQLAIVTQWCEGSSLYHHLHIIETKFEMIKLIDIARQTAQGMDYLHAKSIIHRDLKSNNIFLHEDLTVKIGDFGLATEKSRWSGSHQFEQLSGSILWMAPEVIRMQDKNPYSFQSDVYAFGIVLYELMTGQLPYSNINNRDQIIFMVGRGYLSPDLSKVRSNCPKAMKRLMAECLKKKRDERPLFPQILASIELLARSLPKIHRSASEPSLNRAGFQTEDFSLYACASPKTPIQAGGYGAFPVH

As for `CCCS(=O)(=O)Nc1ccc(Cl)c(NC(=O)c2cccc3c(N)ncnc23)c1F`, the IC50 in series [1] worked out at 0.00059 µM; in series [2], 0.0095 µM.
In the case of `CCCS(=O)(=O)Nc1ccc(F)c(NC(=O)N(C)c2cc(N)ncn2)c1F`, the IC50 in series [2] is 0.24 µM.
In turn, `CCCS(=O)(=O)Nc1ccc(F)c(NC(=O)Nc2ncnc3[nH]nc(OC)c23)c1F` had an IC50 in series [1] of 0.0016 µM. This molecule returned an EC50 in series [2] of 0.0026 µM. Besides, the pKa in series [3] turned out to be 1.8. Besides, the solubility thermodynamic at 24 h in series [4] was found to be 0.049 mg/mL (≈ 111 µM).
Take `CCCS(=O)(=O)Nc1ccc(F)c(NC(=O)c2csc3c(N)ncnc23)c1Cl`: the IC50 was 0.0011 µM in series [1] and 0.015 µM in series [2].
For `CCCS(=O)(=O)Nc1ccc(F)c(NC(=O)Nc2cc(NCCO)ncn2)c1F`, the IC50 in series [2] stood at 3.4 µM. Further, the solubility thermodynamic at 24 h in series [4] amounted to 0.9 mg/mL (≈ 2090 µM).
Consider `CCCS(=O)(=O)Nc1ccc(F)c(NC(=O)Nc2cc(NC)ncn2)c1F`, for which the results for the IC50 in series [1] and in series [2] were 0.036 µM and 0.168 µM, respectively. Also, the solubility thermodynamic at 24 h in series [4] worked out at 0.9 mg/mL (≈ 2250 µM).
In the case of `CCCS(=O)(=O)Nc1ccc(F)c(NC(=O)Nc2cc(N)ncn2)c1F`, the IC50 in series [2] worked out at 0.438 µM.
With `CCCS(=O)(=O)Nc1ccc(Cl)c(NC(=O)c2csc3c(N)ncnc23)c1F`, the figures for the IC50 in series [1] and in series [2] were 0.0009 µM and 0.019 µM, respectively.
